Test results as given in patent publication US20010053333A1, “Antimicrobial flash-dry disinfectant aerosol” (priority 2000, published 2001).

Experiment: Evaporation time for various aerosol sterilizer
Assay type: physicochemical
Excerpt: Evaporation Time for Various Aerosol Sterilizer

With `O` [H2O] the “Evaporation Time: state” value (1 minute) was “wet”, the “Evaporation Time: state” value (2 minutes) was “wet” and the “Evaporation Time: state” value (5 minutes) was “humid”. For the same compound, the “Evaporation Time: state” value (15 minutes) was “droplets”, the “Evaporation Time: state” value (30 minutes) was “droplets” and the “Evaporation Time: state” value (40 minutes) was “droplets”. The “Evaporation Time: state” value (45 minutes) was “dry”.
